For 21 compounds, IC50 and Ki results are on record in ChEMBL document CHEMBL1909046, “DrugMatrix in vitro pharmacology data”.

A short description of data set [1]: DRUGMATRIX: Glutamate, AMPA radioligand binding (ligand: [3H] AMPA). It counts as cell membranes, Rattus norvegicus, Wistar, Cerebral cortex, Membrane. To be noted: Not Active = under 50% inhibition at 10 µM.
The target of another data set is Cytochrome P450 2D6 (Homo sapiens, UniProt P10635). The conditions noted are these: bti-tn-5b1-4. Note: in other assays of this panel Not Active means under 50% inhibition at 10 µM.
Chain of Cytochrome P450 2D6 (P10635 whole entry): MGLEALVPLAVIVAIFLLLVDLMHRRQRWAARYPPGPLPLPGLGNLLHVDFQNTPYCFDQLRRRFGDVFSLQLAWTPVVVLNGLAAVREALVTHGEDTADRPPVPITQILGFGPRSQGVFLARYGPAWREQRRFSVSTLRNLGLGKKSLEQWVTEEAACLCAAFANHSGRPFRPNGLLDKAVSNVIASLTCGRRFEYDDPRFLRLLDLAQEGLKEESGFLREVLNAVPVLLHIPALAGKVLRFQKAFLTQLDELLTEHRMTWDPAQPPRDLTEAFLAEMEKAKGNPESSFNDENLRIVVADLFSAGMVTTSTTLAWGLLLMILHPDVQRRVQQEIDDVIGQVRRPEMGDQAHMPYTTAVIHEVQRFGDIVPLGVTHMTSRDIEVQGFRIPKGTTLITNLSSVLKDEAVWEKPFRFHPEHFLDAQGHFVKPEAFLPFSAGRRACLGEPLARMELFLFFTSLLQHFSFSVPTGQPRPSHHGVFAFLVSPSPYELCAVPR
Data set [2] has as its target T1, 5-hydroxytryptamine receptor 2C (Homo sapiens, UniProt P28335).
T1 sequence (P28335 whole entry): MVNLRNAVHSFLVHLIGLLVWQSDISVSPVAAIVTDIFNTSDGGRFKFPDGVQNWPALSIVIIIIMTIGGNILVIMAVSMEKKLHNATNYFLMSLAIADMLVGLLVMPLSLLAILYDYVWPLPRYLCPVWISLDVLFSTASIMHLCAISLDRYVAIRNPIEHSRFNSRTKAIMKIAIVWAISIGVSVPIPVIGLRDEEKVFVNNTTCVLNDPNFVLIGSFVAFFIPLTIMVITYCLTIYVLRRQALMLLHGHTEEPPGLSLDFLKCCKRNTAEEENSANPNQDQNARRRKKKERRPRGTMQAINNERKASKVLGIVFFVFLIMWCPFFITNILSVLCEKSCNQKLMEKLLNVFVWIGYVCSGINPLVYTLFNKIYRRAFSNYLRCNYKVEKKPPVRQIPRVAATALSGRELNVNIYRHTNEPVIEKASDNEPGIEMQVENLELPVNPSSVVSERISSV
Kind of data set: DRUGMATRIX: Serotonin (5-Hydroxytryptamine) 5-HT2C radioligand binding (ligand: [3H] Mesulergine). It counts as cell membranes, CHO-K1, Membrane. The conditions noted are these: Not Active = under 50% inhibition at 10 µM.

Data set [3] concerns the target T2, Cysteinyl leukotriene receptor 1 (Homo sapiens, UniProt Q9Y271). Note: in other assays of this panel Not Active means under 50% inhibition at 10 µM.
T2 sequence (Q9Y271 whole entry): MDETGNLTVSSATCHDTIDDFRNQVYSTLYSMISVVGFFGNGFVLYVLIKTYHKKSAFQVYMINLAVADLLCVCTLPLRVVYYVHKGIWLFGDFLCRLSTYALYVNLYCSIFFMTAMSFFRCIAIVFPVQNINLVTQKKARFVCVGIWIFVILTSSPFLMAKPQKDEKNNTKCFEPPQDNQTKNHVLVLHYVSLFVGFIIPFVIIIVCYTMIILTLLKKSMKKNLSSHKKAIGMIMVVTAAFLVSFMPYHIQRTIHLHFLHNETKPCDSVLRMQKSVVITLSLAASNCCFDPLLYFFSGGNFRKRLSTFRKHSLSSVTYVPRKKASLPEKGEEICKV
It counts as cell membranes, Membrane. To be noted: cho-k1.

For data set [4], the target named is Mitogen-activated protein kinase 14 (Homo sapiens, UniProt Q16539). Set-up: species or system Escherichia coli.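 Note: inhibition of p38alpha enzyme activity in a biochemical kinase assay, with myelin basic protein serving as substrate; in other assays of this panel Not Active means under 50% inhibition at 10 µM.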
Chain of Mitogen-activated protein kinase 14 (Q16539 whole entry): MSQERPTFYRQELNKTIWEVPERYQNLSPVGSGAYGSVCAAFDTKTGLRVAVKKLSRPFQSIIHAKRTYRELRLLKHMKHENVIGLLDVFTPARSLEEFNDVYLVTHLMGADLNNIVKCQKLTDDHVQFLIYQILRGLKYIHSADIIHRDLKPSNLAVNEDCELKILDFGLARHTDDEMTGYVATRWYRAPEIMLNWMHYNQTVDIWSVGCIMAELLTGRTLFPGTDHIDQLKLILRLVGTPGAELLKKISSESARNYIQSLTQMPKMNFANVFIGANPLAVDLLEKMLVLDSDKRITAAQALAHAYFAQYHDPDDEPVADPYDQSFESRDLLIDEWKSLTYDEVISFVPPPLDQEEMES
Data set [5] can be described thus: DRUGMATRIX: Nicotinic Acetylcholine radioligand binding (ligand: [125I] Epibatidine). It counts as cell membranes, Membrane. To be noted: imr-32; Not Active = under 50% inhibition at 10 µM.

One may read the IC50 as the concentration that gives 50% inhibition. A word on the Ki: it is a measure of affinity in units of concentration, obtained from inhibition or displacement. Take `O=C(c1ccccc1C(F)(F)F)N1CCC(Cc2ccccc2)CC1`: the half-inhibitory concentration (IC50) result is “Not Active” in data set [1]; “Not Active” at Cytochrome P450 2D6; “Not Active” in data set [2] (cho-k1); “Not Active” in data set [3]; 0.715 µM in data set [4] (read-out: IC50); “Not Active” in data set [5]. Also, the Ki entry (in data set [1]; at Cytochrome P450 2D6; in data set [5]) was “Not Active” each time.

In the case of `O=C/C=C/c1ccccc1`, the IC50 entry (in data set [1]; at Cytochrome P450 2D6; in data set [2] (cho-k1); in data set [3]; in data set [4]; in data set [5]) was “Not Active” in each case. Further, the Ki result (in data set [1]; on Cytochrome P450 2D6; in data set [5]) was “Not Active” throughout.

For the compound `Nc1ccc2c3c(cccc13)C(=O)NC2=O`, the half-inhibitory concentration (IC50) entry (in data set [1]; at Cytochrome P450 2D6; in data set [2] (cho-k1); in data set [3]; in data set [4]; in data set [5]) was “Not Active” throughout. For the same compound, the Ki entry (in data set [1]; at Cytochrome P450 2D6; in data set [5]) was “Not Active” throughout.

With `COc1ccc(C(=O)N2CCCC2=O)cc1`, the IC50 entry (in data set [1]; against Cytochrome P450 2D6; in data set [2] (cho-k1); in data set [3]; in data set [4]; in data set [5]) was “Not Active” in each case. Moreover, the Ki entry (in data set [1]; on Cytochrome P450 2D6; in data set [5]) was “Not Active” in each case.

For `O=c1cnn([C@@H]2O[C@H](CO)[C@@H](O)[C@H]2O)c(=O)[nH]1` [6-AZAURIDINE], the IC50 entry (in data set [1]; against Cytochrome P450 2D6; in data set [2] (cho-k1); in data set [3]; in data set [4]; in data set [5]) was “Not Active” in each case. Further, the Ki entry (in data set [1]; at Cytochrome P450 2D6; in data set [5]) was “Not Active” in each case.

As for `NCCCC(O)(P(=O)(O)O)P(=O)(O)O` [ALENDRONIC ACID], the half-maximal inhibitory concentration (IC50) entry in data set [1], in data set [2] (cho-k1), in data set [3], in data set [4] and in data set [5] was “Not Active” in each case. Besides, the Ki result in data set [1] and in data set [5] was “Not Active” in each case.

`CN1[C@@H]2CC[C@H]1C[C@@H](OC(=O)C(CO)c1ccccc1)C2` (stereo not given in full) [ATROPINE]: the IC50 entry in data set [1], in data set [3], in data set [4] and in data set [5] was “Not Active” throughout. The Ki result in data set [1] and in data set [5] was “Not Active” each time.

Regarding `COc1ccc2cc3[n+](cc2c1OC)CCc1cc2c(cc1-3)OCO2.[Cl-]` [BERBERINE CHLORIDE], the IC50 entry in data set [1], in data set [2] (cho-k1), in data set [3], in data set [4] and in data set [5] was “Not Active” throughout. Besides, the inhibition constant (Ki) result in data set [1] and in data set [5] was “Not Active” each time.

For the compound `Cc1cc2c(OCC(CNC(C)(C)C)OC(=O)c3ccccc3)cccc2[nH]1` (stereo not given) [BOPINDOLOL], the IC50 entry in data set [1], in data set [2] (cho-k1), in data set [3], in data set [4] and in data set [5] was “Not Active” each time. Moreover, the inhibition constant (Ki) entry in data set [1] and in data set [5] was “Not Active” throughout.

As for `COc1cc(N)c(Cl)cc1C(=O)NC1CCN(CCCOc2ccc(F)cc2)CC1OC` (stereo not given) [CISAPRIDE], the IC50 result in data set [1], in data set [3], in data set [4] and in data set [5] was “Not Active” in each case. In addition, the Ki entry in data set [1] and in data set [5] was “Not Active” throughout.

Regarding `C[C@@H]1C[C@H]2[C@@H]3CCC4=CC(=O)C=C[C@]4(C)[C@@]3(F)[C@@H](O)C[C@]2(C)[C@@]1(O)C(=O)CO` [DEXAMETHASONE], the IC50 entry in data set [1], in data set [2] (cho-k1), in data set [3], in data set [4] and in data set [5] was “Not Active” in each case. The Ki entry in data set [1] and in data set [5] was “Not Active” in each case.

As for `OC(CCCN1CCCCC1)(c1ccccc1)c1ccccc1` [DIPHENIDOL], the half-inhibitory concentration (IC50) result in data set [1], in data set [2] (cho-k1), in data set [3], in data set [4] and in data set [5] was “Not Active” each time. The Ki entry in data set [1] and in data set [5] was “Not Active” in each case.

On to `COc1cc([C@@H]2c3cc4c(cc3[C@@H](O[C@@H]3O[C@@H]5CO[C@@H](C)O[C@H]5[C@H](O)[C@H]3O)[C@H]3COC(=O)[C@H]23)OCO4)cc(OC)c1O` [ETOPOSIDE], for which the IC50 result in data set [1], in data set [2] (cho-k1), in data set [3], in data set [4] and in data set [5] was “Not Active” each time. Besides, the Ki entry in data set [1] and in data set [5] was “Not Active” in each case.

Turning to `COc1ccc2c3c1O[C@H]1C[C@@H](O)C=C[C@@]31CCN(C)C2` [GALANTAMINE], the IC50 entry in data set [1], in data set [2] (cho-k1), in data set [3], in data set [4] and in data set [5] was “Not Active” each time. The inhibitory constant (Ki) entry in data set [1] and in data set [5] was “Not Active” in each case.

As for `CC(C)=CCC/C(C)=C/CO` [GERANIOL], the IC50 result in data set [1], in data set [2] (cho-k1), in data set [3], in data set [4] and in data set [5] was “Not Active” each time. Moreover, the Ki entry in data set [1] and in data set [5] was “Not Active” each time.

For the compound `CC(=O)[C@@]1(O)CC[C@H]2[C@@H]3CCC4=CC(=O)CC[C@]4(C)[C@H]3CC[C@@]21C` [HYDROXYPROGESTERONE], the IC50 entry in data set [1], in data set [2] (cho-k1), in data set [3], in data set [4] and in data set [5] was “Not Active” each time. Moreover, the inhibition constant Ki entry in data set [1] and in data set [5] was “Not Active” each time.

With `COC1=C(OC)C(=O)C(CCCCCCCCCCO)=C(C)C1=O` [IDEBENONE], the IC50 result in data set [1], in data set [2] (cho-k1), in data set [3], in data set [4] and in data set [5] was “Not Active” in each case. Besides, the Ki entry in data set [1] and in data set [5] was “Not Active” each time.

Regarding `Cc1c(OCC(F)(F)F)ccnc1C[S+]([O-])c1nc2ccccc2[nH]1` (stereo not given) [LANSOPRAZOLE], the half-inhibitory concentration (IC50) result in data set [1], in data set [2] (cho-k1), in data set [3], in data set [4] and in data set [5] was “Not Active” each time. The inhibition constant (Ki) result in data set [1] and in data set [5] was “Not Active” each time.

On to `CC(C)NCC(O)COc1cccc2[nH]ccc12` (stereo not given) [PINDOLOL], for which the IC50 entry in data set [1], in data set [2] (cho-k1), in data set [3], in data set [4] and in data set [5] was “Not Active” each time. In addition, the Ki entry in data set [1] and in data set [5] was “Not Active” each time.

On to `CCCNCC(O)COc1ccccc1C(=O)CCc1ccccc1` (stereo not given) [PROPAFENONE], for which the IC50 entry in data set [1], in data set [3], in data set [4] and in data set [5] was “Not Active” in each case. Further, the Ki entry in data set [1] and in data set [5] was “Not Active” each time.

As to `CC(C)c1cccc(C(C)C)c1O` [PROPOFOL], the concentration for half-maximal inhibition (IC50) entry in data set [1] was “Not Active”; in data set [2] (read-out: IC50) it was 11.6 µM; in data set [3], “Not Active”; in data set [4], “Not Active”; in data set [5], “Not Active”. Besides, the inhibitory constant (Ki) entry in data set [1] is “Not Active”; in data set [2] (read-out: Ki), 6.05 µM; in data set [5] it was “Not Active”.
